In patent US20090209605A1, “NEMATICIDAL COMPOSITIONS” (Devgen N.V., priority 2004, published 2009):

Columns and labels:
Assay type in all cases: in vivo
Meloidogyne incognita = experiment: Root infestation on agar plate: root knot count on potato microplant roots; conditions: 60 μM in agar, galls counted 5 weeks after inoculation, four replicates
Method: 9 cm petri dishes were filled with a 15 ml agar. One stem cutting of a potato microplant (Solanum tuberosum cv. Desirée) was placed on top of the agar layer. After 2 to 3 weeks of incubation at 20° C., the root system was sufficiently developed to be inoculated.
The test compounds (see Table 1) were added 2 days before inoculation by way of spreading a 2 ml DMSO-solution with the compound over the agar and allowing the compound to diffuse in the agar during two days at constant temperature of 20° C. During incubation, the plates are protected from light in a dark incubator. The resulting concentration of each compound in each agar plate was 60 μM.
After incubation, approximately 400 axenic juveniles of Meloidogyne incognita species were added to the plate.
The plates were incubated in the dark at a constant temperature of 20° C. and 5 weeks after inoculation the number of galls formed on the roots were determined by counting. Also any toxic effect of the test compounds on the roots was recorded. 8 weeks after inoculation the plates were stored at low temperature.
Each compound was tested in four replicates. Positive controls were treated with different concentrations of Aldicarb, a known nematicide. Negative controls included 5 replicates of double negative controls (no compound, no nematode), 5 replicates of single negative controls (no compound, with nematode) and 5 replicates of DMSO controls (DMSO solution, with nematode).

Heterodera nematode = experiment: Pot Assay 3: Heterodera infection of sugar beet, crop vigor and crop height; conditions: infested soil
Description: The soil used in this assay originated from a Heterodera nematode infested sugar plot of which the infestation was confirmed by means of several soil analyses. Each pot was filled up with a soil mixture composed as follows: a) the infested soil was constituted by silt loam soil (about 600 g/pot) mixed with sterile peat (about 600 g/pot) and sterile cork (about 200 g/pot); b) the sterile soil was instead constituted only by sterile peat (1200 g/pot) and sterile cork (200 g/pot).
(§1) Each compound or compound mixture as described herein was tested in 4 different rates with 4 replicates per rate. One pot per replicate was used in which 18 beava sugar beet seeds (variety GEA (KWS)) were sown. After crop germination, the number of plants was reduced to 10 plants. The 4 rates added to the soil of the tested compounds or compound mixtures were 0.05 mg, 0.20 mg, 1 mg and 5 mg. These amounts translate to field application rates respectively as 30, 120, 600 and 3000 g per hectare.
Efficacy of the compounds described herein as nematicide was measured by visual inspection of the crop vigor and the crop height. The crop vigor evaluation is based on a 0-100 scale, where 0 is “no vigor” and 100 is “maximum vigor”. The crop height development is based on a measurement, in cm, per plant, excluding the root system.
Positive control plants were treated with Oxamyl (Vydate 5 G, 5% gr) at a rate of 40 kg fp per ha. Negative controls involved single negative controls (no compound, with nematode infested soil; referenced as “Untreated 1”) and double negative controls (no compound, sterile soil; referenced as “Untreated 2”).

[1] = test system: Meloidogyne incognita nematodes; experiment: Pot Assay 1: Meloidogyne infection of potato, egg masses/galls on roots; conditions: potato in pot, week 8 after inoculation
Method: 500 ml clay pots were filled with 400 ml of silver sand. One tuber of potato ( Solanum tuberosum cv. Bintje) was planted in the sand. After 2 to 3 weeks incubation, the potato plant was sufficiently developed to be inoculated.
Plants were grown under the usual standard greenhouse conditions at 14° C.-18° C., with 16 hours light and 8 hours dark and 80-90% relative humidity. The pots were watered using individual drippers and fertilizers were added under the form of macro- and micro nutrients according to plant growth requirements. When needed, the plants were sprayed with fungicides and insecticides.
The compounds as described herein were added one day before inoculation. The compounds were dissolved in a 20 ml DMSO-solution and spread over the sand surface. The final concentration is calculated under the assumption that the compound is diffused entirely in the pot. This process occurred during two days at the normal greenhouse conditions described above.
After compound incubation, approximately 1500 juveniles of Meloidogyne incognita nematodes were added to the pots.
The pots were incubated at the described greenhouse conditions until nematode development was completed. At week 8 after inoculation the number of galls formed on the roots was counted after washing off the sandy substrate. Also the effect of the compound on the plant development was recorded.
Every compound was tested in three replicates. Positive control plants were treated with different concentrations of aldicarb, a known nematicide. Negative controls involved 12 replicates of double negative controls (no compound, no nematode), 12 replicates of single negative controls (no compound, no DMSO, with nematode), 24 replicates of DMSO controls (DMSO solution, with nematode).
As assessment of the root development was taken into account.

[2] = test system: sugar beet (variety GEA (KWS)); experiment: Pot Assay 3: phytotoxicity, number of sugar beet plants emerged
Method: as §1
Phytotoxicity assessments were carried by assessing any possible effects of the chemicals on the crop, such as chlorosis, yellowing, stunting, in comparison to the untreated control without nematodes.

Meloidogyne nematodes = experiment: Pot Assay 2: Meloidogyne infection of tomato, % infestation of roots; conditions: tomato in infested soil
Method: The soil used in this assay originated from a plot, heavily infested with Meloidogyne nematodes. Part of this soil was sterilized by autoclaving and was used as negative control. Sandy soil, which was not infested with nematodes, was pursued from a commercial source.
Plastic seedling trays with wells of 60 ml capacity were filled with about 40 ml of soil per well. 5 ml of water per well was used for irrigation.
Compounds as described herein were tested in 4 different rates and with 12 replicates for each concentration. The compounds as described herein were stored as dry films of 4 different concentrations. The day of the application of the compounds, all the dry films were dissolved in 60 ml water and poured into the 12 replicate wells: 5 ml per well. Every tray of 12 wells was identified with a label, indicating compound and concentration used. The 4 final rates in the soil of the tested compound were approximately 0.05 mg, 0.20 mg, 1 mg and 5 mg. These amounts translate to field application rates respectively as 30, 120, 600 and 3000 g per hectare.
3-5 days after application of the tested compound, tomato seeds (cv. Rio Grande) were sown in the wells by hand, at about 2 cm deep. A light cover of vermiculite on the surface was used to avoid dehydration. Plants were irrigated by micro-nebulization 3-4 times per week at a rate of 3 L/m^2, weeded by hand and treated with fertilizers, fungicide and insecticides when needed.
Their resistance against nematode infection was monitored and the efficacy of compounds described herein as a nematicide was measured. Furthermore the phytotoxicity of the test compounds was evaluated.
Efficacy of the compounds described herein as nematicide was measured by giving the roots a percentage of infestation measured as follows. Plants were grown to reach good development of the roots, which corresponds to plants grown to about 10 cm high at about one month after emergence. After removal of the soil from the roots by rinsing with water, the roots were visually inspected and root galls were counted on 4 plants of the set of 12 replicate plants.
Positive control plants were treated with a 10 micromolar concentration of oxamyl (Vydate, 10% SL; the rate of 10 micromolar corresponds to a commercial rate of 20 l/ha), a known nematicide. Negative controls involved double negative controls (no compound, sterile soil), and single negative controls (no compound, with nematode infested soil).

tomato (cv. Rio Grande) = experiment: Pot Assay 2: root development (vigor of roots) of tomato; conditions: visual value 0 to 10 (10 equal to control)
Method: Phytotoxicity of compounds as described herein when used as a nematicide, was measured as follows. […] At that moment, plant emergence was assessed for the plants treated with any of the compounds as described herein, by counting the number of plants per compound-concentration.
Vigor of roots was also assessed once the plants are well established so as not to loose plants. To assess vigor of the plants or roots, a visual value ranging from 0 to 10 (0 no vigor, 10 equal to control) was scored per compound-concentration.

[3] = test system: root-knot nematode (Meloidogyne spp); experiment: Nematicide field trial on tomato: root galling and yield; conditions: for Average root galling: 0-5 Lamberti scale
Method: (§2) Open field tomatoes (Lycopersicon esculentum, variety incas) were grown on sandy soil with a natural root-knot nematode (Meloidogyne spp) population. Soil samples, collected prior to planting, contained on average 113 J2 juveniles per 100 g soil. A program of 5 applications with intervals of about 14 days was started two days after transplantation.
(§3) An experimental pattern at Complete Randomized Blocks with four replicas was adopted. Besides the experimental products, each test also included an untreated control and a treatment with the standard commercial product VYDATE 10L (10%) applied in accordance to label instructions.
The read-outs are the average yield of the marketable tomatoes per plant (Table 7). The level of nematode attack of the root system at the time of harvesting was assessed by means of the lamberti scoring.

[4] = test system: root-knot nematode (Meloidogyne spp); experiment: Nematicide field trial on cucumber: root galling and yield; conditions: for Average root galling: 0-5 Lamberti scale
Method: as §2, with “ground grown cucumber (Cucumis sativus cv Carine)” for “field tomatoes (Lycopersicon esculentum, variety incas)”, “8” for “113”, “4” for “5”, “six” for “two”
as §3
[…] The level of nematode attack of the root system at the time of harvesting was assessed by means of the lamberti scoring.

[5] = Product Rate 1 (footnote g ai/ha)
[6] = Product Rate 2 (footnote g ai/ha)
[7] = Product Rate 4 (footnote g ai/ha)
[8] = Product Rate 8 (footnote g ai/ha)

COC(=O)c1sccc1S(=O)(=O)NC(=O)Nc1nc(C)nc(OC)n1 [XL]
Root knot count, average of the replicate counts (Meloidogyne incognita): 0
crop height (cm) (Heterodera nematode; Rate 0.05 mg): 12 cm
crop vigor (max 100%) (Heterodera nematode; Rate 0.05 mg): 90%

c1coc(-c2nc3ccccc3[nH]2)c1 [XVI]
Root knot count, average of the replicate counts (Meloidogyne incognita): 14.5
number of egg masses (galls) on roots, Replicate 2 ([1]; 10 μM): 50
number of egg masses (galls) on roots, Replicate 2 ([1]; 50 μM): 40
number of egg masses (galls) on roots, Replicate 3 ([1]; 50 μM): 15
crop height (cm) (Heterodera nematode; Rate 0.05 mg): 13 cm
crop vigor (max 100%) (Heterodera nematode; Rate 0.05 mg): 90%
# crops emerged (max 18) ([2]; Rate 0.05 mg): 18

CCN(Cc1ccc(Cl)nc1)/C(=C/[N+](=O)[O-])NC [XXIX]
Root knot count, average of the replicate counts (Meloidogyne incognita): 17.5
number of egg masses (galls) on roots, Replicate 1 ([1]; 50 μM): 50
number of egg masses (galls) on roots, Replicate 2 ([1]; 50 μM): 40
number of egg masses (galls) on roots, Replicate 3 ([1]; 50 μM): 40
% INF. (% Infestation) (Meloidogyne nematodes; RATE 0.05 mg): 3.8%
% INF. (% Infestation) (Meloidogyne nematodes; RATE 0.2 mg): 1.3%
% INF. (% Infestation) (Meloidogyne nematodes; RATE 1 mg): 2.5%
% INF. (% Infestation) (Meloidogyne nematodes; RATE 5 mg): 5.0%
ROOT DEV. (tomato (cv. Rio Grande); RATE 0.05 mg): 7.9
ROOT DEV. (tomato (cv. Rio Grande); RATE 0.2 mg): 7.7
ROOT DEV. (tomato (cv. Rio Grande); RATE 1 mg): 7.5
ROOT DEV. (tomato (cv. Rio Grande); RATE 5 mg): 6.6

CC(C)NC(=O)N1CC(=O)N(c2cc(Cl)cc(Cl)c2)C1=O [XXV]
Root knot count, average of the replicate counts (Meloidogyne incognita): 17
number of egg masses (galls) on roots, Replicate 1 ([1]; 10 μM): 50
number of egg masses (galls) on roots, Replicate 2 ([1]; 10 μM): 50
number of egg masses (galls) on roots, Replicate 1 ([1]; 50 μM): 30
number of egg masses (galls) on roots, Replicate 2 ([1]; 50 μM): 25
number of egg masses (galls) on roots, Replicate 3 ([1]; 50 μM): 20
Average yield of marketable fruits [3, 5]: 1.45 kg/plant/pot
Average root galling [3, 5]: 1.8
Average yield of marketable fruits [3, 6]: 1.33 kg/plant/pot
Average root galling [3, 6]: 1.3
Average yield of marketable fruits ([4]; Product Rate 500 g ai/ha): 6.7 kg/plant/pot
Average root galling ([4]; Product Rate 500 g ai/ha): 2.75
Average yield of marketable fruits ([4]; Product Rate 1500 g ai/ha): 9.1 kg/plant/pot
Average root galling ([4]; Product Rate 1500 g ai/ha): 1.75

CC(C)[C@@H](Nc1ccc(C(F)(F)F)cc1Cl)C(=O)OC(C#N)c1cccc(Oc2ccccc2)c1 (stereo partly drawn) [XXXVI]
Root knot count, average of the replicate counts (Meloidogyne incognita): 0
crop height (cm) (Heterodera nematode; Rate 0.05 mg): 9 cm
crop vigor (max 100%) (Heterodera nematode; Rate 0.05 mg): 70%
crop height (cm) (Heterodera nematode; Rate 0.2 mg): 14 cm
crop vigor (max 100%) (Heterodera nematode; Rate 0.2 mg): 100%
crop height (cm) (Heterodera nematode; Rate 1 mg): 15 cm
crop vigor (max 100%) (Heterodera nematode; Rate 1 mg): 100%
crop height (cm) (Heterodera nematode; Rate 5 mg): 13 cm
crop vigor (max 100%) (Heterodera nematode; Rate 5 mg): 90%
# crops emerged (max 18) ([2]; Rate 0.05 mg): 18
# crops emerged (max 18) ([2]; Rate 0.2 mg): 18
# crops emerged (max 18) ([2]; Rate 1 mg): 18
# crops emerged (max 18) ([2]; Rate 5 mg): 18
Average yield of marketable fruits [3, 7]: 1.43 kg/plant/pot
Average root galling [3, 7]: 1.8
Average yield of marketable fruits [3, 8]: 1.26 kg/plant/pot
Average root galling [3, 8]: 1.8
Average yield of marketable fruits ([4]; Product Rate 250 g ai/ha): 9.3 kg/plant/pot
Average root galling ([4]; Product Rate 250 g ai/ha): 1.88
Average yield of marketable fruits ([4]; Product Rate 500 g ai/ha): 9.6 kg/plant/pot
Average root galling ([4]; Product Rate 500 g ai/ha): 1.63
